Values after ≈ are worked out from the molar mass of the structure shown. “Also recorded” adds a separate entry of the source. Where two headings read alike, the source gives them in different places.
Assays:
[1] = test system: V. harveyi reporter strain BB170 (Sensor 1−, Sensor 2+); assay: V. harveyi luminescence assay, test strain BB170 (AI-2 bioassay); assay type: cell-based, Vibrio harveyi; settings: for signaling activity (induction of luminescence): control experiments, reporter strain BB170
Experimental: FIG. 16 panels C and D show the effect of the same compounds on control strain JAF78. Strain BB170 synthesizes AI-2 starting at 4.5 hours into the assay. Light produced at the start of the assays is from AI-2 carried over from cells diluted from stationary phase. Strain JAF78 is a mutant strain in which light production is “locked on” and is unaffected by the presence or absence of autoinducer. Increase in light over the time course reflects increase in cell population density.
Density-dependent Bioluminescence Assay. […] The cell density was measured by diluting the same aliquots of cells used for measuring luminescence, spreading the dilutions onto solid LM medium, incubating the plates overnight at 30° C., and counting the resulting colonies the following day. Relative Light Units are (counts min^−1 ml^−1×10^3)/(colony forming units ml^−1). Cell-free culture supernatants from V. harveyi or S. typhimurium strains were added to a final concentration of 10% (v/v) at the time of the first measurement. In control experiments, 10% (v/v) of AB medium, LB medium or LB medium containing 0.5% glucose was added instead of cell-free culture fluids.
Assay for Production of Signaling Molecules. Cell-free culture fluids from E. coli, S. typhimurium and V. harveyi strains were tested for the presence of signaling substances that could induce luminescence in the V. harveyi reporter strain BB170 or BB886. In the assays, 10 μl of cell-free culture fluids from E. coli AB1157, E. coli DH5α, and S. typhimurium LT2 strains grown and harvested as described above were added to 96-well microtiter dishes. The V. harveyi reporter strain BB170 or BB886 was grown for 16 h at 30° C. with aeration in AB medium, diluted 1:5000 into fresh AB medium, and 90 μl of the diluted cells were added to the wells containing the E. coli and S. typhimurium cell-free culture fluids. Positive control wells contained 10 μl of cell-free culture fluid from strain V. harveyi BB152 (Autoinducer-1^−, Autoinducer-2^+) or V. harveyi BB120 (Autoinducer-1^+, Autoinducer-2^+). Negative control wells contained 10 μl of sterile growth medium. The microtiter dishes were shaken in a rotary shaker at 175 rpm at 30° C.
Bioluminescence Assay. […] Cell-free culture fluids from V. harveyi, E. coli, or S. typhimurium strains to be tested for AI-2 activity were prepared as described above, and assayed at 10% (v/v). AI-2 activity is reported as the fold-induction of the reporter strain over background, or as the percent of the activity obtained from V. harveyi BB120 (wild type) cell-free culture fluid.

[2] = test system: V. harveyi strains MM32, BB120, BB170; assay: Microtiter crystal violet biofilm formation assay; assay type: cell-based, Vibrio harveyi; settings: null mutant (AI-1−/AI-2−) V. harveyi
Experimental: Biofilm formation was measured using a microtiter-based assay. Free-swimming (planktonic) bacteria were cultured in AB or LB media supplemented with glucose in 96 well microtiter dishes. Biofilms typically formed along the walls of the wells at the interface of the liquid and air phase. At the end of the incubation, aliquots of a crystal violet solution (stock 0.1%) were added to the wells to stain both the adherent and the non-adherent cells. The wells were then washed with deionized water to remove non-adherent cells, and the bound crystal violet solubilized with 200 microliters of water. Absorbance reading at 600 nm (A600) were used to quantitate the amount of crystal violet dye that had adhered to the biofilms. When indicated, synthetic AI-2 was added to the wells at the beginning of the cultures.
Various amounts of synthetic AI-2 were added to the initial free-swimming bacterial cultures in LB media supplemented with glucose, and biofilm formation measured at the end of the incubation.

[3] = test system: sensor-1+, sensor-2− mutant (BB886); assay: Microtiter luminescence assay with AI-1 and strain BB886; assay type: cell-based, Vibrio harveyi; settings: non self-stimulating strain BB886
[4] = test system: AI-2 mediated luciferase expression in V. harveyi; assay: V. harveyi bioassay, tester and control strains, bioluminescence intensity; assay type: cell-based, Vibrio harveyi
Experimental: The results are normalized to cell count and control strain.
The inhibition of an AI-2 mediated response was further measured in the V. harveyi bioassay. Compound QXP031 was tested against V. harveyi tester and control strains. […] The results are normalized to cell count and any minimal effects seen in the control strain. The fold difference in bioluminescence intensity at the different drug concentrations versus no drug control is indicated above the appropriate bars in FIG. 21.

[5] = test system: CAMP expression by S. pyogenes 19615; assay: CAMP assay (S. aureus 25923 streak, S. pyogenes 19615 streaks, sheep blood agar); assay type: cell-based, Streptococcus pyogenes
Experimental: The horizontal streak is S. aureus 25923 and the vertical streaks are S. pyogenes 19615. Filter disks containing either DMSO no drug control or compound QXP031 were applied to plates and incubated anaerobically overnight at 37° C.
Many streptococci produce a diffusible extracellular protein (CAMP) that acts synergistically with staphylococcal beta lysin to lyse erythrocytes on trypticase soy agar plates containing sheep blood. Hemolysis of erythrocytes is an important component of the virulence response in many pathogenic bacteria. A single straight streak of a beta lysin producing S. aureus strain is made. Steptococci to be tested are streaked perpendicular to the S. aureus streak.

[6] = test system: S. pyogenes 19615 proteolytic activity; assay: Skim milk plate proteinase assay; assay type: cell-based, Streptococcus pyogenes; settings: filter disk, anaerobic overnight 37° C.
Experimental: Skim milk containing plates were overlaid with top agar containing S. pyogenes 19615. Filter disks containing either DMSO no compound control or compound QXP031 were applied to plates and incubated anaerobically overnight at 37° C.
Proteinase activity is an important component of the virulence response in many pathogenic bacteria. Skim milk containing agar plates can be used to score for proteinase activity in a variety of bacteria. Proteolytic activity is scored as a clearing zone surrounding a test inoculum. The clearing zone is the result of the proteolytic breakdown of the milk proteins suspended in the agar plates. Regions where milk protein is not broken retain a milky opaque appearance.

[7] = test system: Streptococcus pyogenes ATCC 19615; assay: Antibiotic susceptibility assay (NCCLS broth microdilution); assay type: cell-based; settings: for MIC: Streptococcus pyogenes, ATCC19615
Experimental: (§1) Antimicrobial susceptibility testing was conducted according to the National Committee for Clinical Laboratory Standards (NCCLS) reference method “Broth Dilution Procedure (Microdilution)” published January 1977 (UPDATE VERSION). The method yields a minimum inhibitory dose (MIC) required for complete inhibition of bacterial growth. MICs were determined using a dilution series of antibiotic, in which all of the wells contained a constant concentration of the inhibitor compound was maintained. In addition, before the instant susceptibility tests were performed, the inhibitor compounds were tested in the appropriate inhibitor screens (See, for example, FIG. 32 for the AI-2 inhibitor 2-ethyl-4-hydroxy-5-methyl-3(2H)-furanone). […] Experiments were conducted in 96 well microtiter plates using a final volume of 0.1 ml/well. Assays were conducted using either Mueller-Hinton broth, Todd-Hewitt broth, or Nutrient Broth (Difco). The bacterial innoculum was prepared from a log phase overnight culture of Streptococcus pyogenes ATCC 19615 or Staphylococcus aureus ATCC 25923. Turbidity of the cultures was adjusted with saline to 0.05 McFarland standard (10^7 CFU/ml), and 5 microliters of this innoculum was added to each well. The inhibitor compounds were prepared by dissolving a stock solution in water. Working stocks of quorum inhibitors compounds were made by diluting the stock solutions with bacterial broth. Sodium salts of the antibiotics were used in these experiments. A stock solution (10 mg/ml) was prepared as stipulated by the manufacturer by dissolving a weighed amount of antibiotic in water or DMSO. All antibiotics were added in two-fold serial dilutions to a series of wells to yield final concentrations ranging from 100 μg/ml to 0.1 μg/ml. The single exception was sulfisoxazole where the range of final doses ranged from 300 μg/ml to 2.5 μg/ml. Bacterial broth was used as the diluent. The range of antibiotic concentrations used were chosen to be at and below the MIC for the antibiotic alone. Cultures were sealed and incubated for 20 hours at 37° C. MIC values were determined by spectrophotometric measurements of absorbance at 600 nm. […] Fold-changes in MIC concentration were determined by comparing the MIC for antibiotic and quorum inhibitor compounds with the MIC measured using antibiotic alone.

[8] = test system: Streptococcus pyogenes ATCC 19615; assay: Cell growth monitored by absorbance at 600 nm; assay type: cell-based; settings: 2.4 μg/ml or 2.5 mg/ml
Experimental: Streptococcus pyogenes ATCC 19615 was grown in the presence of either 2.4 μg/ml or 2.5 mg/ml of compound QXP-035. Cell growth was monitored by taking periodic measurements of absorbance at 600 nm.

[9] = test system: MM32 indicator strain (LuxS−, LuxN−) of V. harveyi; assay: MM32 bioluminescence assay; assay type: cell-based, Vibrio harveyi; settings: autoinducer-2 25 μg/ml, QXP-048 25 μg/ml
Experimental: The MM32 indicator strain (LuxS−, LuxN−) of V. harveyi was incubated with various doses of AI-2 and the bioluminescence signal measured at various time points during a 6-hour incubation.
Exogenous synthetic autoinducer-2 was added at the outset of the assay at a final concentration of 25 μg/ml. QXP-048 was added at the outset of the assay at a final concentration of 25 μg/ml. […] Exogeneous synthetic autoinducer-2 was added at the outset of the assay to a final concentration of 25 μg/ml. QXP-048 was added at the outset of the assay at a final concentration of 25 μg/ml.
The invention provides a luxN− and luxS− strain of V. harveyi, designated MM32, for identifying inhibitors of the quorum-sensing pathway. […] Further, since MM32 cannot produce AI-2, addition of exogenous AI-2 or its analogs allows rapid identification of inhibitors of AI-2.

[10] = test system: Staphylococcus aureus ATCC 25923; assay: Antibiotic susceptibility assay (NCCLS broth microdilution); assay type: cell-based; settings: with 2-ethyl-4-hydroxy-5-methyl-3(2H)-furanone at 25 μg/ml
Experimental: as §1

[11] = test system: AI-2; assay: Inhibition of AI-2 initiated activation of a biochemical pathway
Text: It is an object of the invention to provide compounds and methods for regulating the activity of autoinducer-2 receptors such as LuxP or LuxQ. Compounds of the invention include those that interact with LuxP or LuxQ. Specifically, the invention provides a method for the regulation of LuxP or LuxQ protein resulting in the regulation of bacterial cell growth or the regulation of bacterial pathogenicity by regulating the expression of a factor associated with bacterial virulence. The method of the invention envisions contacting LuxP or LuxQ with pentenomycin, or derivatives thereof, such that LuxP or LuxQ activity is regulated. Pentenomycin has previously been identified as having antibiotic activity. […] The chemical structure of pentenomycin, and derivatives thereof (see below), is/are similar to that of the structure of autoinducer-2 as identified in the present study.

In the case of O=C(O)CCC(=O)C(=O)O [-ketoglutarate], the “signaling activity (induction of luminescence)” value (“signaling activity” below) [1] is reported as “lacked activity”.

In the case of C[C@@H](O)CC(=O)N[C@H]1CCOC1=O [AI-1, N-(3-hydroxybutanoyl)-L-homoserine lactone, reference compound], the “biofilm production after addition to the medium” value [2] is reported as “allows (AI-1−/AI-2−) V. harveyi to produce biofilm” and the “lowest concentration to which the assay was sensitive” value [3] is reported as 100 nM.

In the case of OC[C@H]1OC(O)[C@H](O)[C@@H](O)[C@@H]1O (stereo partly shown) [Glucose], the “signaling activity” value [1] is reported as “lacked activity”.

For CC(=O)O[C@H]1C=CC(=O)C1 [QXP031, (R)-4-acetoxy-cyclopent-2-eneone], the “effect on AI-2 mediated luciferase expression” value ([4]; at the concentrations indicated in FIG. 21) was “specifically inhibited”, the “specific decrease in bioluminescence as a result of AI-2 inhibition” value ([4]; various concentrations, normalized to cell count and control strain) was “up to 15000 fold” and the CAMP score [5] was “negative CAMP score”. The “hemolysis in CAMP assay” value ([5]; filter disk, anaerobic overnight 37° C.) was “complete inhibition of hemolysis” and the “proteolysis of milk protein” value [6] was “inhibition of S. pyogenes proteolytic activity; also recorded: proteolysis was inhibited”.

With CCC1OC(C)=C(O)C1=O (stereo not shown) [QXP-035, 2-ethyl-4-hydroxy-5-methyl-3(2H)-furanone] the “effect on AI-2-dependent bioluminescence” value ([1]; BB170, various amounts, monitored over time) was “inhibition of bioluminescence”, the MIC ([7]; compound alone, read-out: MIC) was > 100 µg/mL and the “effect on cell growth” value [8] was “did not inhibit cell growth”.

COC1(c2ccccc2)OC=C(c2ccccc2)C1=O (stereo not shown) [QXP-048, 2-methoxy-2,4-diphenyl-3(2H)furanone] was tested, and the “effect on signal from exogenous synthetic autoinducer-2” value [9] was “inhibitory capability”.

In the case of CC(=O)O [acetate], the “signaling activity” value [1] is reported as “lacked activity”.

CC1(C)S[C@@H]2[C@H](NC(=O)[C@H](N)c3ccccc3)C(=O)N2[C@H]1C(=O)O [ampicillin] was tested, and the “MIC of antibiotic combined with quorum inhibitor” value (“MIC … with quorum inhibitor” for short) [10] was 0.4 µg/mL.

In the case of N[C@H]1CCOC1=O [homoserine lactone], the “signaling activity” value [1] is reported as “lacked activity”.

With O=C1C=C[C@H](O)[C@@]1(O)CO [pentenomycin] the “effect on AI-2 initiated activation of a biochemical pathway” value [11] was “acts as an inhibitor”.

For Cc1noc(NS(=O)(=O)c2ccc(N)cc2)c1C [sulfisoxazole], the “synergy in combination with 2-ethyl-4-hydroxy-5-methyl-3(2H)-furanone” value [7] was “marked synergies”, the MIC ([7]; compound alone, read-out: MIC) was ~300 µg/mL (≈ 1120 µM) and the “MIC … with quorum inhibitor” value ([7]; with 2-ethyl-4-hydroxy-5-methyl-3(2H)-furanone at 100 micrograms per milliliter) was “approximately 100 μg/ml”.

With CN[C@H](CC(C)C)C(=O)N[C@H]1C(=O)N[C@@H](CC(N)=O)C(=O)N[C@H]2C(=O)N[C@H]3C(=O)N[C@H](C(=O)N[C@H](C(=O)O)c4cc(O)cc(O)c4-c4cc3ccc4O)[C@H](O)c3ccc(c(Cl)c3)Oc3cc2cc(c3O[C@@H]2O[C@H](CO)[C@@H](O)[C@H](O)[C@H]2O[C@H]2C[C@](C)(N)[C@H](O)[C@H](C)O2)Oc2ccc(cc2Cl)[C@H]1O [vancomycin] the “synergy in combination with 2-ethyl-4-hydroxy-5-methyl-3(2H)-furanone” value [7] was “marked synergies”, the MIC [7] was ~100 µg/mL (≈ 69 µM) and the “MIC … with quorum inhibitor” value ([7]; with 2-ethyl-4-hydroxy-5-methyl-3(2H)-furanone at 5 μg/ml, compared with vancomycin alone) was “approximately the same MIC”. For the same compound, the “MIC … with quorum inhibitor” value ([7]; with 2-ethyl-4-hydroxy-5-methyl-3(2H)-furanone at 12.5 μg/ml) was “approximately 1.6 micrograms/milliliter” and the “MIC … with quorum inhibitor” value ([7]; with 2-ethyl-4-hydroxy-5-methyl-3(2H)-furanone at 50 μg/ml, compared with 12.5 μg/ml) was “the same MIC”.
